Measurements: patent publication US5202456A, “Compounds for inhibition of protein methylation” (The President and Fellows of Harvard College, priority 1991, dated 1993)
“Also recorded” adds a separate entry of the source. Where two headings read alike, the source gives them in different places. Blank lines part the entries; values can stand above or below the molecule they belong to. * marks the point of attachment. Farnesyl = CC(C)=CCC/C(C)=C/CC/C(C)=C/C*

Tests used:
[1] = system: demethylase activity in ROS membranes; test: Methylation exchange/demethylation of AFC methyl ester with ROS membranes; type: biochemical, bovine
Description: (§1) Frozen bovine retinas (Wanda Lawson Co., Lincoln, Nebr.) were used to prepare ROS membranes depleted of peripheral proteins using a modification of the procedure of Wessling-Resnick et al. (J. Biol. Chem. 262:3697, 1987). Briefly, ROS membranes were washed with low ionic strength buffer and 100μM GTP, resuspended in 50 mM Hepes-Na (pH 7.4), 100 mM NaCl, 5 mM MgCl2, 0.1 mM phenylmethylsulfonyl fluoride, 0.1 mM dithiothreitol (buffer A) and stored in small aliquots at -80° C. until used. Transducin was isolated by disrupting ROS membranes by passing the membranes through a narrow needle and washing the disrupted membranes in a series of centrifugation steps as described by Wessling-Resnick et al. (J. Biol. Chem. 262:3697, 1987). Finally transducin was eluted from the membranes with 100μM GTP. The transducin-enriched supernatant was concentrated using Centriprep (Amicon).
(§2) For initial studies, the reaction mixture contained 20 μCi of S-adenosyl-[methyl-^3 H] methionine ([^3 H]SAM) (2.34 μM, Amersham) and an aliquot of ROS (120μg of total protein) or of washed ROS membranes (80μg of total protein) in 100 μl of buffer A. Purified transducin was added to this mixture to a concentration of 5 μM. AFC, N-acetylcysteine, or AFC methylester was added in 2 μl of dimethyl sulfoxide to give a final concentration of 20 μM, and the reaction was carried out at 37° C.
To study the demethylation process directly, AFC[^3 H]methyl ester was incubated with ROS membranes in the presence of methylation inhibitors. […] Under similar conditions, demethylation of Tγ and the putative small G protein (23-29 kDa) was also observed.

HL-60 cell extracts = test: Turnover of AFC methyl ester by HL-60 cell extracts; type: biochemical; conditions: in words
[2] = molecular target: T1, ROS methyltransferase (bovine retinal rod outer segment S-adenosyl-L-methionine-dependent methyltransferase) (Bos taurus, UniProt A0AAA9SD88); test: ROS methyltransferase assay: compounds as substrates (Km) or inhibitors (Ki) of AFC methylation; type: biochemical
T1 construct: utilizing ROS membranes as the source of methyltransferase enzyme; tissue Wanda Lawson Co., Lincoln, Nebr; (frozen bovine retinas); host or cells: bovine retinal rod outer segment (ROS) membranes
Description: Standard assays may be used to determine Km for substrates and Ki for inhibitors. […] The values of Ki and Km are calculated from kinetic assays by conventional means (Fersht, Enzyme Structure and Mechanism, W. H. Freeman and Co., New York, 1984). Examples are provided below to illustrate suitable assays, and are not intended to limit the invention.
One suitable assay of methylation functions uses bovine retinal rod outer segment (ROS) methyltransferase and a natural substrate, transducin. […] Another suitable assay uses N-acetyl-S-farnesylcysteine as a substrate for ROS methyltransferase.
The bovine retinal transducin γ subunit has a carboxyl-terminal --CAAX motif and undergoes a farnesylation reaction similar to that observed on ras (Lai et al., Proc. Natl. Acad. Sci. USA 87:7673, 1990; Fukada et al., Nature 346:658, 1990).
as §1, §2
The above-described methyltransferase assay was used to analyze the analogs described above.

transducin γ subunit = test: In vitro carboxyl-methylation of transducin γ subunit in ROS; type: biochemical, bovine; conditions: 10 μM; [3H]SAM 2.3 μM; densitometry of SDS gels
From the text: We have identified an S-adenosyl-L-methionine-dependent methyltransferase activity in bovine retinal rod outer segments (ROS) which methylates the free carboxyl group of the farnesylated cysteine of bovine retinal transducin γ subunit. The bovine retinal transducin γ subunit has a carboxyl-terminal --CAAX motif and undergoes a farnesylation reaction similar to that observed on ras (Lai et al., Proc. Natl. Acad. Sci. USA 87:7673, 1990; Fukada et al., Nature 346:658, 1990). Bovine retinal rod outer segment S-adenosyl-L-methionine-dependent methyltransferase (ROS methyltransferase) provides a means by which to identify compounds capable of interfering with the methylation of proteins having a carboxyl-terminal --CAAX motif.
Frozen bovine retinas (Wanda Lawson Co., Lincoln, Nebr.) were used to prepare ROS membranes depleted of peripheral proteins using a modification of the procedure of Wessling-Resnick et al. (J. Biol. Chem. 262:3697, 1987). Briefly, ROS membranes were washed with low ionic strength buffer and 100μM GTP, resuspended in 50 mM Hepes-Na (pH 7.4), 100 mM NaCl, 5 mM MgCl2, 0.1 mM phenylmethylsulfonyl fluoride, 0.1 mM dithiothreitol (buffer A) and stored in small aliquots at -80° C. until used. […]

HL-60 cells = test: Inhibition of HL-60 cell proliferation (trypan blue dye exclusion count); type: cell-based; conditions: FIG. 2; in words
Description: FTA, FTP, AFHC and AFC were tested for their ability to inhibit cell growth as follows.
HL-60 cells (ATCC CCL 240, American Type Culture Collection, Rockville, Md.) which harbor an activated ras gene were grown in RPMI medium (Gibco/BRL, Bethesda, Md.) supplemented with 10-15% fetal calf serum, L-glutamine, penicillin and streptomycin. These cells were treated with various concentrations of FTA, FTP, AFHC, or AFC dissolved in dimethyl sulfoxide (DMSO) or with DMSO only (In all experiments the final DMSO concentration was 1% or less). Treated ans untreated cells were incubated under standard culture conditions for several days. Cells were counted manually at 24 hour intervals using a trypan blue dye exclusion assay which counts only live, intact cells.

23 kDa ras protein = test: [3H]SAM methylation of 23 kDa ras protein in disrupted HL-60 cells; type: biochemical; conditions: 50 μM
Description: In an in vitro labelling reaction similar to that described above for ROS membranes, the 23 kDa ras protein was the principle protein methylated by [^3 H]SAM labelling of disrupted HL-60 cells. In this assay 50 μM FTA inhibited methylation of the 23 kDa protein by 61%.

[3] = system: methyltransferase activity in HL-60 cells; test: Methylation of AFC by activity present in HL-60 cell membrane; type: biochemical; conditions: 10-fold excess of FTA
[4] = system: methyltransferase present in HL-60 cell extracts; test: Methylation of transducin γ subunit by HL-60 cell extract methyltransferase; type: biochemical; conditions: in words
[5] = [3H]SAM and washed ROS membranes

T1 sequence (A0AAA9SD88 1-284): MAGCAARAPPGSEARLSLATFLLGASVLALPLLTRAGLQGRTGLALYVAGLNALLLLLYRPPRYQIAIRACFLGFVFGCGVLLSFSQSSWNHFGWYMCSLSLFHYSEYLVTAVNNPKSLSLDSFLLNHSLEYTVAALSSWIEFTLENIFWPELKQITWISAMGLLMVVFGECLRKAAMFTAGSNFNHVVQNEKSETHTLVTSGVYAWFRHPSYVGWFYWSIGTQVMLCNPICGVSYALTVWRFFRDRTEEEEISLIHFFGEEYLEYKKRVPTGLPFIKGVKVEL

hydrolysis of methyl ester by demethylase activity ([1]; ROS membranes, in presence of methylation inhibitors): rapidly hydrolyzed
duration of linear incorporation of radioactivity [1, 5]: at least 2 hr
Molecule: COC(=O)[C@H](CSC/C=C(\C)CC/C=C(\C)CCC=C(C)C)NC(C)=O [AFC methyl ester]
incorporation of radioactivity into AFC methyl ester [1, 5]: linear, time-dependent incorporation of radioactivity
turnover by HL-60 cell extracts (HL-60 cell extracts): can be turned over

Ki ([2]; Table 1, conventional inhibitors, read-out: Ki): 4.6 µM
Ki ([2]; calculated, read-out: Ki for inhibition of AFC methylation): 4.6 µM
competitive inhibition of AFC methylation ([2]; in words): potent competitive inhibitors
Molecule: CC(C)=CCC/C(C)=C/CC/C(C)=C/CSCC(=O)O [FTA, 2-farnesylthioacetic acid]
substrate activity for ROS methyltransferase ([2]; in words): substrate activity was lost; also recorded: not substrates
inhibition of in vitro carboxyl-methylation of transducin γ subunit (transducin γ subunit): 70%
inhibition of proliferation of HL-60 cells (HL-60 cells): can inhibit proliferation
inhibition of methylation of the 23 kDa protein (23 kDa ras protein): 61%
inhibition of AFC methylation by HL-60 membrane activity [3]: 90%

B1: γ subunit of transducin: γ subunit (Tγ) of retinal transducin, farnesylated at cysteine (protein, UniProt P02698 2-71, looked up)
Guanine nucleotide-binding …: PVINIEDLTEKDKLKMEVDQLKKEVTLERMLVSKCCEEFRDYVEERSGEDPLVKGIPEDKNPFKELKGGC(Farnesyl)
modifications: ends and bridges not checked
notes: γ subunit (Tγ) of retinal transducin, farnesylated at cysteine
methylation by methyltransferase in HL-60 cell extracts [4]: can be methylated
